Results reported in PubChem BioAssay (NCI).
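Results reflect a 48-hour exposure of cells in 96-well plates to compound at five concentrations. GI50 is the concentration that inhibits growth by half. TGI is the concentration that stops growth completely.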

How the values were obtained:
Assay in all cases: NCI anticancer screen, dose series, 48 h
NCI-H460 lung = system: NCI-H460 lung
OVCAR-8 ovarian = system: OVCAR-8 ovarian
MDA-MB-435 = system: MDA-MB-435
M14 melanoma = system: M14 melanoma
TK-10 renal = system: TK-10 renal
OVCAR-3 ovarian = system: OVCAR-3 ovarian
MCF7 breast = system: MCF7 breast
HT29 colon = system: HT29 colon
SK-MEL-2 melanoma = system: SK-MEL-2 melanoma

| Structure (SMILES) | TGI (NCI-H460 lung) [µM] | TGI (OVCAR-8 ovarian) [µM] | TGI (MDA-MB-435) [µM] | TGI (M14 melanoma) [µM] | TGI (TK-10 renal) [µM] | TGI (OVCAR-3 ovarian) [µM] | TGI (MCF7 breast) [µM] | TGI (HT29 colon) [µM] | TGI (SK-MEL-2 melanoma) [µM] | GI50 (NCI-H460 lung) [µM] | GI50 (TK-10 renal) [µM] | GI50 (MCF7 breast) [µM] | GI50 (HT29 colon) [µM] |
| --- | --- | --- | --- | --- | --- | --- | --- | --- | --- | --- | --- | --- | --- |
| CC(=O)Nc1ccc2c3c(cc(O)c2c1)N(C(=O)CCCCCC(=O)Nc1ccc2c4c(cc(O)c2c1)N(C(=O)OC(C)(C)C)CC4CCl)CC3CCl (stereo not drawn) | > 21.2 | 15.2 | 3.29 | 20.5 | > 70.6 | 4.54 | > 35.5 | > 39.8 | 4.02 | – | – | – | – |
| Cc1ccc2nnc(NS(=O)(=O)c3cc(C)c(Cl)cc3S)n2n1 | > 100 | > 100 | > 100 | > 100 | > 100 | > 100 | > 100 | > 100 | > 100 | – | – | – | – |
| CC(CNc1nc(Nc2ccc(Cl)c(Cl)c2)nc(C(Cl)(Cl)Cl)n1)N(C)C (stereo not drawn) | 3.11 | – | – | – | 3.27 | – | 3.16 | 3.11 | – | 1.66 | 1.77 | 1.7 | 1.66 |
| COc1cccc(-c2cc(=O)c3cc(N4CCCC4)ccc3[nH]2)c1 | 1.42 | 0.00128 | < 0.001 | > 10 | > 10 | < 0.001 | > 4.67 | – | – | – | – | – | – |
| Cc1ccc(C(=O)N/N=C(\N=Nc2ccccc2)c2ccc(N(CCC#N)CCC#N)cc2C)cc1 | > 100 | > 100 | > 100 | > 100 | > 100 | > 100 | > 100 | > 100 | > 100 | – | – | – | – |
| CC(=O)Oc1cc2c(n(C)c1=O)CCC2 | > 100 | > 100 | > 100 | > 100 | > 100 | – | > 100 | > 100 | > 100 | – | – | – | – |
| O=c1ccc2nc3ccc(O)cc3oc-2c1 | > 100 | > 100 | 3.23 | 19.5 | > 100 | > 85.7 | > 52.7 | > 75.9 | 57.7 | – | – | – | – |
| Nc1c(O)c(C(=O)O)cc2ccccc12 | > 100 | > 100 | 33.4 | 35.2 | > 100 | 94.5 | 24.2 | 31.8 | 35 | – | – | – | – |
| C1COCCOP2(N3CC3)=NP(N3CC3)(=NP(N3CC3)(N3CC3)=N2)OCCOCCO1 (stereo not drawn) | – | > 100 | > 100 | > 100 | > 100 | > 100 | > 100 | > 100 | – | – | – | – | – |
| Cc1cc(C)nc(NS(=O)(=O)c2ccc(NC(=O)c3ccc4nc5ccccc5c(Nc5ccc(S(=O)(=O)Nc6nc(C)cc(C)n6)cc5)c4c3)cc2)n1 | > 100 | > 100 | > 100 | > 100 | > 100 | > 100 | 84.5 | > 100 | > 100 | – | – | – | – |
| COc1cc(C2SC(N)=Nc3c2c(C)nn3C(=O)c2ccc(Cl)cc2)ccc1O (stereo not drawn) | > 10 | > 10 | > 10 | > 10 | > 10 | > 10 | > 10 | > 10 | > 10 | – | – | – | – |
